Source: patent US9688654B2, “Compounds inhibiting leucine-rich repeat kinase enzyme activity” (Merck Sharp & Dohme Corp., priority 2013, dated 2017)

How the values were obtained:
[1] = target: T1, LRRK2 (G2019S mutation, GST-LRRK2 (amino acids 970-2527)) (Homo sapiens, UniProt Q5S007, G2019S); assay: LRRK2 5 mM ATP LanthaScreen Assay; type: biochemical; settings: mean IC50
T1 construct: GST-LRRK2 (amino acids 970-2527); GST (N); purchased Life Technologies Corporation
Protocol: (§1) The data presented for the 5 mM and Km ATP LanthaScreen™ Assay represents mean IC50 values based on several test results and may have reasonable. deviations depending on the specific conditions and reagents used. Reagents for the LRRK2 5 mM and Km ATP LanthaScreen™ Assay were purchased from Life Technologies Corporation.
LRRK2 5 mM ATP LanthaScreen™ Assay
(§2) • a) 400 nl of a 1:2.15 serial dilution of test compound (98 μM top assay concentration) is spotted via Labcyte Echo to certain wells in a 384 well black, untreated plate. Control wells contain 400 nl of either DMSO or 400 nl of a known inhibitor in DMSO. • b) 10 μl of a 2.5 nM LRRK2 (G2019S mutation, GST-LRRK2 (amino acids 970-2527)) enzyme solution in 1× assay buffer (50 mM Tris pH 8.5, 10 mM MgCl2, 0.01% Brij-35, 1.0 mM EGTA, 2 mM DTT, 0.05 mM NaVO4) is added to all wells. • c) A 30 minute room temperature incubation is followed by addition of 10 μl of 800 nM fluorescein labeled LRRKtide peptide substrate and 10 mM ATP solution in 1× assay buffer to all wells. • d) After a 35 minute room temperature incubation, 20 μl of TR-FRET Dilution Buffer (Invitrogen PV3756B) containing 4 nM Tb-labeled anti-phospho LRRKtide antibody and 20 mM EDTA is added to all wells. • e) Plates are incubated at room temperature for 1 hour and read on an Envision™ multi-mode plate reader with LanthaScreen™ settings. Results are analysed using Assay Data Analyzer. […] Results are analysed using Assay Data Analyzer.

[2] = target: T1, LRRK2 (G2019S mutation, GST-LRRK2 (amino acids 970-2527)); assay: LRRK2 Km ATP LanthaScreen Assay; type: biochemical; settings: mean IC50
Protocol: Unless otherwise noted, all LRRK2 IC50 data presented in tables refers to the LRRK2 Km ATP LanthaScreen™ Assay that is described in the Biological Assay section.
as §1
as §2, with “[…])” for “of 800 nM fluorescein labeled LRRKtide peptide substrate and 10 mM ATP solution in 1× assay buffer to all wells. • d)”

T1 sequence (Q5S007 970-2527 G2019S): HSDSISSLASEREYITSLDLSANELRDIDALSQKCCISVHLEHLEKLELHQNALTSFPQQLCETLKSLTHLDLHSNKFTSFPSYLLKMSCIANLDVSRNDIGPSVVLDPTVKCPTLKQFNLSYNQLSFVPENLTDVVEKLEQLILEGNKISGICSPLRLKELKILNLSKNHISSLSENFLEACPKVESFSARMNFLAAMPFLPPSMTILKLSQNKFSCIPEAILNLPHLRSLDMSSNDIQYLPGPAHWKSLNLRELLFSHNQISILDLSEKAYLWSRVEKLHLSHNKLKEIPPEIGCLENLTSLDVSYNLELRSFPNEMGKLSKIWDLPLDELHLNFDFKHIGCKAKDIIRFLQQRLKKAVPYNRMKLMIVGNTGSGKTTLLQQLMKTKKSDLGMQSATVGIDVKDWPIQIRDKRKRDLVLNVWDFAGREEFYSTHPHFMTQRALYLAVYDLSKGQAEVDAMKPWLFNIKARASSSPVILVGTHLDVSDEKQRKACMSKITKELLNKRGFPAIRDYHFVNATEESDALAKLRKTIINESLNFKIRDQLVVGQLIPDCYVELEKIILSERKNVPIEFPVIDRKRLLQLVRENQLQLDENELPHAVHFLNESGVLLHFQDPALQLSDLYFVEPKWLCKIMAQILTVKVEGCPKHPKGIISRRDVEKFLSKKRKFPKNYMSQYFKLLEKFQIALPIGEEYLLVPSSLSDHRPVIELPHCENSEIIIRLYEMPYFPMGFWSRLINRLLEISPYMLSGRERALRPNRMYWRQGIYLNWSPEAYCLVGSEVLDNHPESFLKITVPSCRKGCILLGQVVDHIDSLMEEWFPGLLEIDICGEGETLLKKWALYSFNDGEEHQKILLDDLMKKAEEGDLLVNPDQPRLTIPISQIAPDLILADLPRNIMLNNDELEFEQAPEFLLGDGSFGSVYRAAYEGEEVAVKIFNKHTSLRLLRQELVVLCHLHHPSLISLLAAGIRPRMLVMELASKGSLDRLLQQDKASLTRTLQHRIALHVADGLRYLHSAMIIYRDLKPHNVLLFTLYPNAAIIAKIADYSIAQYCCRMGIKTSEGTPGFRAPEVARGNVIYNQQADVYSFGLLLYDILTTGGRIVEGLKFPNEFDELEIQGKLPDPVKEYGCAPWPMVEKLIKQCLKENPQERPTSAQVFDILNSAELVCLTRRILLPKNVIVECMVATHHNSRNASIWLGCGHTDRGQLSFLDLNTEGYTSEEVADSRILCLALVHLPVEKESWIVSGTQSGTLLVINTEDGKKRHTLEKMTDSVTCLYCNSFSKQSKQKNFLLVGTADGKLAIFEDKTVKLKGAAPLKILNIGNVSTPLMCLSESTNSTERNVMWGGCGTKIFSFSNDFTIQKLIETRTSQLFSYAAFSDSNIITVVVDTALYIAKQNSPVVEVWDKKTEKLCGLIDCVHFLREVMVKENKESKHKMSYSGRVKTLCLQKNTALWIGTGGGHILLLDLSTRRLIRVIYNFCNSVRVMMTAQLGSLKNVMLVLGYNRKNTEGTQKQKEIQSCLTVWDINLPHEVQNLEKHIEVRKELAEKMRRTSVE

Row | IC50 [1] [nM] | IC50 [2] [nM] | Structure (SMILES)
1 | 225 | 16 | c1cc(-c2n[nH]c3ccc(OC4CC4)cc23)cc(N2CCC2)n1 [Example 9]
2 | 297 | 12 | CCc1nnc2n1CCN(c1cc(-c3n[nH]c4ccc(OC5CC5)cc34)ccn1)C2 [Example 23]
3 | 300 | 12 | c1cc(-c2n[nH]c3ccc(OC4CC4)cc23)cc(N2CCN(C3CC3)CC2)n1 [Example 26]
